Assay results published in patent US20200157048A1, “(2E,4E)-5-PHENYL-PENTA-2,4-DIEN-1-ONE DERIVATIVE” (BIOWAY., INC, priority 2018, published 2020).

Columns and labels:
Format in all cases: cell-based, Human
Conditions in all cases: steatosis-induced (OA/PA) Huh-7 cells; 10 μM; 24 hours
[1] = tested on: Sirt1 mRNA; assay: qRT-PCR Sirt1 mRNA level in steatosis-induced Huh-7 cells
Method: (§1) In Experimental Example 5, the Huh-7 cells were plated in 6 wells at 4×10^5 cells/mL and incubated under an atmosphere containing 5% CO2 at 37° C.
(§2) One day later, the cell density approached about 80 to 90%. The medium was changed to an FBS-free RPMI1640 medium, and incubated under an atmosphere containing 5% CO2 at 37° C. for 24 hours.
(§3) Huh-7 cells of each well, excluding control cells, were pretreated with an OA/PA mixture for one hour to induce steatosis. The control cells were pretreated with 1% FA-free BSA.
(§4) Each well was treated with 10 μM of a test compound, and then the cells were incubated for 24 hours. The control cells and OA/PA-treated cells were treated with DMSO. Cells of a positive control were treated with 10 μM of resveratrol, 10 μM of piperine, and 10 μM of YU2014. The medium was entirely aspirated, and the cells were washed with PBS (phosphate buffered saline, Corning, Manassas, Va., USA) two times.
(§5) Total RNA was extracted using a RNeasy RNA isolation kit (Qiagen, Hilden, Germany).
(§6) 10 μL of β-mercaptoethanol (Sigma-Aldrich) per 1 mL of lysis buffer was added, thereby preparing an RNA lysis buffer. […]
(§7) An RNA concentration was measured at O.D. 260 nm using a nanophotometer N60 (Implen, Munich, Germany). The concentration and purity of RNA were measured at O.D. 260/280 nm and calculated as a ratio. […]
(§8) Quantitative analyses for the genes in Table 3 were performed.

[2] = tested on: Ck2α mRNA; assay: qRT-PCR Ck2α mRNA level in steatosis-induced Huh-7 cells
Method: as §1, §2, §3, §4, §5, §6, §7, §8

[3] = tested on: Fgf21 mRNA; assay: qRT-PCR Fgf21 mRNA level in steatosis-induced Huh-7 cells
Method: as §1, §2, §3, §4, §5, §6, §7, §8

[4] = tested on: Pparα mRNA; assay: qRT-PCR Pparα mRNA level in steatosis-induced Huh-7 cells
Method: as §1, §2, §3, §4, §5, §6, §7, §8

Row | SMILES | Sirt1 mRNA level (FIG. 16) [1] | Ck2α mRNA level (FIG. 19) [2] | Fgf21 mRNA level (FIG. 12) [3] | Pparα mRNA level (FIG. 10) [4]
1 | CCC(=O)N1CCN(C(=O)/C=C/C=C/c2ccc(OC)cc2)CC1 [R-18, (2E,4E)-5-(4-methoxyphenyl)-1-(4-propionylpiperazine-1-yl)penta-2,4-dien-1-one] | greatly increased | greatly reduced | – | –
2 | CCOC(=O)N1CCN(C(=O)/C=C/C=C/c2ccc(OC)cc2)CC1 [R-23, Ethyl 4-((2E,4E)-5-(4-methoxyphenyl)penta-2,4-dienoyl)piperazine-1-carboxylate] | greatly increased | – | – | –
3 | O=C(/C=C/C=C/c1ccc2c(c1)OCO2)N1CCCCC1 [piperine, Piperine] | – | – | no effect | no effect
4 | CCOC(=O)N1CCN(C(=O)/C=C/C=C/c2ccc(SC)cc2)CC1 [R-24, Ethyl 4-((2E,4E)-5-(4-(methylthio)phenyl)penta-2,4-dienoyl)piperazine-1-carboxylate] | – | greatly reduced | – | –
